The subject of experiment [1] is F11 cells. As to the kind of experiment: F11 cell death induced by transfection of FAD genes, trypan blue exclusion assay. The class given is cell-based. Here is the method: (§1) F11 cells (Platika, D. et al. (1985) Proc. Natl. Acad. Sci. U.S.A. 82, 3499-3503; Yamatsuji, T. et al. (1996) Science 272, 1349-1352) were cultured in HamF-12 media containing 18% fetal bovine serum (FBS) and antibiotics. 7×10^4/well of F11 cells were seeded into a 6-well plate; cultured in HamF-12 containing 18% FBS for 12 to 16 hours; transfected 3 hours with plasmids encoding FAD genes and plasmids encoding HN (pHN, and such) by lipofection in the absence of serum (1 μg of FAD cDNA expression plasmid, 1 μg of HN cDNA expression plasmid, 4 μl of LipofectAMINE, 8 μl of Plus reagent); and then, were cultured for 2 hours in HamF-12 media containing 18% FBS. Then, culture media were exchanged with HamF-12 media containing 10% FBS; and the cells were cultured for additional 67 hours. 72 hours after transfection, cell death was measured by trypan blue exclusion assay. Experiments using synthetic HN polypeptides were conducted as follows: F11 cells (at 7×10^4/well in a 6-well plate) were transfected 3 hours with FAD genes in the absence of serum, as mentioned above; after cultivation for 2 hours in HamF-12 media containing 18% FBS, the cells were cultured for 67 hours in HamF-12 media containing 10% FBS with various concentrations of HN polypeptides; and cell death was measured by trypan blue exclusion assay. ALS-associated mutant cDNAs of SOD1 were also similarly transfected, and examined for their neurotoxicity.
(§2) Trypan blue exclusion assay was performed as follows. Without prewashing, the cells were suspended with gentle pipetting into a serum-free media. 50 μl of 0.4% trypan blue solution (Sigma, Cat. #T-8154) were added (final concentration of 0.08%) to 200 μl cell suspension, and the suspension was mixed at room temperature. Within 3 minutes of the trypan blue solution addition, stained cells were counted. Cell mortality was determined [100−cell survival rate (%)] based on the stained cell count. LDH assay was performed using a kit (LDH-Cytotoxic Test; Wako Pure Chemical Industries, Cat. #299-50601) by sampling 6 μl of media in which neurons were cultured. Calcein staining was performed as described in literature (Bozyczko-Coyne, D. et al. (1993) Journal of Neuroscience Methods 50, 205-216). Specifically, 6 μM Calcein-AM {3′,6′-Di-(O-acetyl)-2′,7′-bis[N,N-bis(carboxymethyl)aminomethyl]fluorescein, tetraacetoxymethyl ester; Dojindo, Cat. #349-07201} was added to the neurons; and 30 minutes or longer after Calcein-AM treatment, fluorescence (ex=490 nm, em=515 nm) was observed by fluorescence microscopy, and measured by a spectrometer. Specific fluorescence was calculated by subtracting basal fluorescence from total fluorescence. Basal fluorescence was assigned to be the value calculated from linear trypan blue positivity-fluorescence intensity relationship, corresponding to 100% trypan blue positivity.

In experiment [2] the test system is F11/EcR cells. The experiment can be described thus: F11/EcR cell death caused by ecdysone-induced expression of polyglutamine Q79, trypan blue exclusion assay. Type of experiment: cell-based. Conditions: 1 μM polypeptide, ecdysone 72 h. On the procedure: F11/EcR cell experiment using ecdysone was conducted as follows: F11/EcR cells were seeded at 7×10^4/well into a 6-well plate; cultured for 12 to 16 hours in HamF-12 media containing 18% FBS; and were similarly transfected in the absence of serum for 3 hours with 1 μg of ecdysone-inducible plasmid alone, or with 1 μg of HN-encoding plasmid, as mentioned above. After culturing for 12 to 16 hours in HamF-12 media containing 18% FBS, the cells were cultured for 2 hours in HamF-12 media containing 10% FBS, then ecdysone (Ponasterone) was added to the media (final concentration of 40 μM). Cell death was measured 72 hours after ecdysone treatment. Experiments using synthetic HN polypeptides were conducted as follows: cells were similarly transfected for 3 hours with FAD genes in the absence of serum; cultured for 12 to 16 hours in HamF-12 media containing 18% FBS; cultured for 2 hours in HamF-12 media containing 10% FBS and various concentrations of HN polypeptide; and then, 40 μM Ponasterone was added to the media. Cell death was measured by trypan blue exclusion assay after 72 hours from the ecdysone treatment. HD/SCA-associated Q79 cDNAs were also similarly transfected, and the neurotoxicity was tested.
(§3) Trypan blue exclusion assay was performed as follows. […] Within 3 minutes of the trypan blue solution addition, stained cells were counted. Cell mortality was determined [100−cell survival rate (%)] based on the stained cell count. […] Specifically, 6 μM Calcein-AM {3′,6′-Di-(O-acetyl)-2′,7′-bis[N,N-bis(carboxymethyl)aminomethyl]fluorescein, tetraacetoxymethyl ester; Dojindo, Cat. #349-07201} was added to the neurons; and 30 minutes or longer after Calcein-AM treatment, fluorescence (ex=490 nm, em=515 nm) was observed by fluorescence microscopy, and measured by a spectrometer. Specific fluorescence was calculated by subtracting basal fluorescence from total fluorescence. Basal fluorescence was assigned to be the value calculated from linear trypan blue positivity-fluorescence intensity relationship, corresponding to 100% trypan blue positivity.

For experiment [3], the system named is primary cultured cortical neurons. As to the kind of experiment: Aβ1-43-induced cell death of primary cultured cortical neurons (trypan blue, LDH release, Calcein-AM, morphology). Conditions: for effect on Aβ-induced cell death and dystrophic neuritic changes of the axon: 25 μM Aβ1-43, 72 h. Type of experiment: cell-based, mouse. On the procedure:
Primary culture of mouse cortical neurons was performed in poly-D-lysine-coated 24-well plates (Sumitomo Bakelite) in the absence of serum and in the presence of N2 supplement, as described in literature (Eksioglu, Y. Z. et al. (1994) Brain Res. 644, 282-90). The purity of neurons prepared according to the method was >98%. The prepared neurons (1.25×10^5/well, 250 μl media/well) were preincubated in the absence or presence of 10 nM or 10 μM sHN polypeptides for 16 hours; and were treated with 25 μM Aβ1-43 in the absence or presence of sHN polypeptides at the same concentrations for 24 to 72 hours. Since primary cultured neurons are damaged even by temporary dryness during medium exchange, treatment of the cells by Aβ1-43 was performed as follows. First, half of the volume of the old medium (125 μl) was discarded. Then, 125 μl of pre-warmed fresh medium containing 50 μM Aβ1-43 and sHN with a concentration indicated above were added to the culture.
as §2

The subject of the next experiment is primary cultured neurons. As to the kind of experiment: Etoposide-induced cell death of primary cultured neurons (trypan blue, LDH release). The class given is cell-based, mouse. The conditions noted are these: 10 μM polypeptide, 20 μM etoposide, 72 h. Here is the method: 25 μM Aβ1-43 was added to primary cultured cortical neurons in the presence (at indicated concentrations) or absence of sHN, sHNG, or sHNA. Addition of HN polypeptides was performed similarly to that described in FIG. 12. 72 hours after the initiation of Aβ treatment, cell death was measured by trypan blue exclusion assay. Primary cultured neurons treated similarly for 72 hours with 20 μM etoposide in the presence or absence of 10 μM sHN or HN derivatives were used as the positive controls in these experiments. Similar experiments were performed at least three times, and reproducible results were obtained. Mean ±S.D. values of three independent experiments are indicated in the graphs.
Cell damage was monitored as the amount of LDH released into the culture media. […] 24, 48, or 72 hours after the initiation of Aβ treatment, the amount of LDH in the culture media was measured. LDH release from neurons treated with 20 μM etoposide in the presence or absence of HN polypeptides was also measured. […]
Trypan blue exclusion assay was performed as follows. […] Within 3 minutes of the trypan blue solution addition, stained cells were counted. Cell mortality was determined [100−cell survival rate (%)] based on the stained cell count. […] Specific fluorescence was calculated by subtracting basal fluorescence from total fluorescence. […]
(LDH leaks from cells whose membrane has failed.)

The subject of experiment [4] is F11 cells. As to the kind of experiment: F11 cell death induced by ALS-associated SOD1 mutants (A4T, G85R, G93A), trypan blue exclusion assay. The class given is cell-based. The conditions noted are these: 100 μM polypeptide, G85R or G93A SOD1. On the procedure: as §1
as §3, with “Basal fluorescence was assigned to be the value calculated from linear trypan blue positivity-fluorescence intensity relationship, corresponding to 100% trypan blue positivity.” left out

Experiment [5] has as its system F11/EcR cells. As to the kind of experiment: F11/EcR cell death caused by ecdysone-induced expression of FAD genes, trypan blue exclusion assay. The class given is cell-based. Conditions: treated with 1M sHN (so in the source); NL-APP, V642I APP, M146L PS-1 or N141I PS-2; ecdysone 72 h. On the procedure:
F11/EcR cell experiment using ecdysone was conducted as follows: F11/EcR cells were seeded at 7×10^4/well into a 6-well plate; cultured for 12 to 16 hours in HamF-12 media containing 18% FBS; and were similarly transfected in the absence of serum for 3 hours with 1 μg of ecdysone-inducible plasmid alone, or with 1 μg of HN-encoding plasmid, as mentioned above. After culturing for 12 to 16 hours in HamF-12 media containing 18% FBS, the cells were cultured for 2 hours in HamF-12 media containing 10% FBS, then ecdysone (Ponasterone) was added to the media (final concentration of 40 μM). Cell death was measured 72 hours after ecdysone treatment. […] Cell death was measured by trypan blue exclusion assay after 72 hours from the ecdysone treatment. […]
Trypan blue exclusion assay was performed as follows. […] Within 3 minutes of the trypan blue solution addition, stained cells were counted. Cell mortality was determined [100−cell survival rate (%)] based on the stained cell count. […] Specifically, 6 μM Calcein-AM {3′,6′-Di-(O-acetyl)-2′,7′-bis[N,N-bis(carboxymethyl)aminomethyl]fluorescein, tetraacetoxymethyl ester; Dojindo, Cat. #349-07201} was added to the neurons; and 30 minutes or longer after Calcein-AM treatment, fluorescence (ex=490 nm, em=515 nm) was observed by fluorescence microscopy, and measured by a spectrometer. […]

The mark [6] stands for this setting: 10 μM polypeptide, 25 μM Aβ1-43.

Entries after “also recorded” stand apart in the source; their conditions may differ. No end group written: not given here. Some results are limits rather than exact numbers.

With `CC[C@H](C)[C@H](NC(=O)[C@H](CCC(=O)O)NC(=O)[C@H](CO)NC(=O)[C@@H](NC(=O)[C@H](CC(C)C)NC(=O)[C@H](CC(C)C)NC(=O)[C@H](CC(C)C)NC(=O)[C@H](CC(C)C)NC(=O)[C@H](CS)NC(=O)[C@H](CO)NC(=O)[C@H](Cc1ccccc1)NC(=O)CNC(=O)[C@H](CCCNC(=N)N)NC(=O)[C@@H]1CCCN1C(=O)[C@H](C)NC(=O)[C@@H](N)CCSC)[C@@H](C)O)C(=O)N[C@@H](CC(=O)O)C(=O)N[C@@H](CC(C)C)C(=O)N1CCC[C@H]1C(=O)N[C@H](C(=O)N[C@@H](CCCCN)C(=O)N[C@@H](CCCNC(=N)N)C(=O)N[C@@H](CCCNC(=N)N)C(=O)N[C@@H](C)C(=O)O)C(C)C` [sHN], the “suppression of cell death induced by V642I APP” value in the experiment with F11 cells [1] (10 nM polypeptide, 72 h) is reported as “extremely weak suppression”; with F11 cells [1] (10 μM polypeptide, 72 h), “dramatically suppressed”. Also, the “concentration achieving complete suppression of cell death induced by V642I APP” value in the experiment with F11 cells [1] (72 h) is 1 to 10 µM. Moreover, the “concentration blocking neuronal death induced by NL-APP, M146L PS-1 and N141I PS-2” value in the experiment on F11 cells [1] (any of the three FAD genes, 72 h) stood at 1 µM. Besides, in the experiment on F11/EcR cells [2], the “effect of synthetic polypeptide on neuronal death induced by Q79” value (shortened to “effect of synthetic polypeptide … by Q79”) was “not suppressed; also recorded: lack of effects”. In addition, the “effect on Aβ-induced cell death and dystrophic neuritic changes of the axon” value in experiment [3] (10 nM polypeptide) is “did not show any effect”; in experiment [3] (10 μM polypeptide), “dramatically suppressed”. In addition, the “cell damage (LDH released from the cells) after Aβ1-43 treatment” value in experiment [3] (setting [6]) is reported as “completely restored to a level observed under basal conditions”. Also, in experiment [3] (setting [6]), the “cell death (trypan blue exclusion) after Aβ1-43 treatment” value is recorded as “completely restored to a level observed under basal conditions”. Besides, the “prevention of the toxic effect of etoposide on primary cultured neurons” value in the experiment with primary cultured neurons is listed as “could not prevent”. In addition, the “effect of synthetic polypeptide on neuronal death induced by SOD1 mutants” value (from here on “effect … by SOD1 mutants”) with F11 cells [4] is recorded as “couldn't be suppressed; also recorded: lack of the effect”. In the experiment with F11/EcR cells [5], the “effect of synthetic polypeptide on cell death caused by ecdysone-induced expression of FAD genes” value is given as “complete suppression; also recorded: significant suppressive effect”.

In the case of MAPRGFSALLLLTSEIDLPVKRRA [sHNA], the “suppression of cell death induced by V642I APP” value in the experiment on F11 cells [1] (concentrations up to 100 μM) is “did not significantly suppress”. In addition, the “antagonism of cell death by NL-APP, M146L PS-1 and N141I PS-2” value in the experiment on F11 cells [1] (up to a concentration of 100 μM) is on record as “did not antagonize”. In addition, the “effect of synthetic polypeptide … by Q79” value with F11/EcR cells [2] was “Extensive cell death; also recorded: lack of effects”. For the same molecule, the “effect on Aβ-induced cell death and dystrophic neuritic changes of the axon” value in experiment [3] (10 μM polypeptide) is listed as “did not show any effect”. Moreover, in the experiment with F11 cells [4], the “effect … by SOD1 mutants” value is “couldn't be suppressed; also recorded: lack of the effect”.

In the case of MAPRGFSCLLLLTGEIDLPVKRRA [sHNG], the “concentration giving complete antagonizing effect on cell death induced by V642I APP” value in the experiment with F11 cells [1] (72 h) is given as ≤ 10 nM. The “concentration completely antagonizing neuronal death induced by all of the four different types of FAD genes” value in the experiment with F11 cells [1] (V642I APP, NL-APP, M146L PS-1, N141I PS-2) is ≤ 10 nM. Also, in the experiment with F11 cells [1] (any of the FAD genes, 72 h), the “concentration completely suppressing cell death caused by NL-APP, M146L PS-1 and N141I PS-2” value is reported as ≤ 10 nM. The “enhancement of the action of HN by S14G substitution” value with F11 cells [1] (relative to original HN) lay within 100 to 1000 fold. Also, in the experiment on F11/EcR cells [2], the “effect of synthetic polypeptide … by Q79” value is listed as “Extensive cell death; also recorded: lack of effects”. In experiment [3] (10 nM polypeptide), the “effect on Aβ-induced cell death and dystrophic neuritic changes of the axon” value is given as “completely protected”. Besides, the “effect … by SOD1 mutants” value with F11 cells [4] is reported as “couldn't be suppressed; also recorded: lack of the effect”. The “effect of synthetic polypeptide on cell death caused by ecdysone-induced expression of FAD genes” value in the experiment with F11/EcR cells [5] is “complete suppression”.

“NGF: NGF tested at 100 ng/ml as comparator [reference compound]”: in experiment [3] (100 ng/ml, data not shown), the “antagonism of cell death of neurons induced by Aβ” value is on record as “did not show effects to antagonize” and the “antagonism of increased LDH release induced by Aβ” value is “did not show effects to antagonize”.
